Assays:
human CB1 receptors = human CB1 receptors (Homo sapiens (Human), UniProt P21554); experiment: cAMP assay, CHO cells expressing human CB1 receptors; assay type: cell-based; conditions: CHO cells expressing human CB1, cAMP; read-out: human CB1 EC50
Method: (§1) CHO cells expressing human CB1 or CB2 receptors are seeded 17-24 hours prior to the experiment 50.000 cells per well in a black 96 well plate with flat clear bottom (Corning Costar #3904) in DMEM (Invitrogen No. 31331), 1×HT supplement, with 10% fetal calf serum and incubated at 5% CO2 and 37° C. in a humidified incubator. The growth medium was exchanged with Krebs Ringer Bicarbonate buffer with 1 mM IBMX and incubated at 30° C. for 30 min Compounds were added to a final assay volume of 100 μl and incubated for 30 min at 30° C. Using the cAMP-Nano-TRF detection kit the assay (Roche Diagnostics) was stopped by the addition of 50 μl lysis reagent (Tris, NaCl, 1.5% Triton X100, 2.5% NP40, 10% NaN3) and 50 μl detection solutions (20 μM mAb Alexa700-cAMP 1:1, and 48 μM Ruthenium-2-AHA-cAMP) and shaken for 2 h at room temperature. The time-resolved energy transfer is measured by a TRF reader (Evotec Technologies GmbH), equipped with a ND:YAG laser as excitation source. The plate is measured twice with the excitation at 355 nm and at the emission with a delay of 100 ns and a gate of 100 ns, total exposure time 10 s at 730 (bandwidth 30 nm) or 645 nm (bandwidth 75 nm), respectively. The FRET signal is calculated as follows: FRET=T730-Alexa730-P(T645-B645) with P═Ru730-B730/Ru645-B645, where T730 is the test well measured at […], T645 is the test well measured at 645 nm, B730 and B645 are the buffer controls at 730 nm and 645 nm, respectively. cAMP content is determined from the function of a standard curve spanning from 10 μM to 0.13 nM cAMP.
(§2) EC50 values were determined using Activity Base analysis (ID Business Solution, Limited). The EC50 values for a wide range of cannabinoid agonists generated from this assay for reference compounds were in agreement with the values published in the scientific literature.

human CB2 receptors = human CB2 receptors (Homo sapiens (Human), UniProt P34972); experiment: cAMP assay, CHO cells expressing human CB2 receptors; assay type: cell-based; conditions: CHO cells expressing human CB2, cAMP; read-out: human CB2 EC50
Method: as §1, §2

Chain of human CB2 receptors (P34972 whole entry): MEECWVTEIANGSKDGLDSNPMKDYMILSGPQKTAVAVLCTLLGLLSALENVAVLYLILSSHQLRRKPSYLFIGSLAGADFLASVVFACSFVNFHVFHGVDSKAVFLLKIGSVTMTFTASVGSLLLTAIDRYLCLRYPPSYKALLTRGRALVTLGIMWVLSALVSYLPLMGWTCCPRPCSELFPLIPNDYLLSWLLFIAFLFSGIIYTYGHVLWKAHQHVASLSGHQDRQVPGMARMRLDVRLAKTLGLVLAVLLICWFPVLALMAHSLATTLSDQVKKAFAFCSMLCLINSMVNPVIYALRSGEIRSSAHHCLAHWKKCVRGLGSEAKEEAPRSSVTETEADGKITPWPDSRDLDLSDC
Chain of human CB1 receptors (P21554 whole entry): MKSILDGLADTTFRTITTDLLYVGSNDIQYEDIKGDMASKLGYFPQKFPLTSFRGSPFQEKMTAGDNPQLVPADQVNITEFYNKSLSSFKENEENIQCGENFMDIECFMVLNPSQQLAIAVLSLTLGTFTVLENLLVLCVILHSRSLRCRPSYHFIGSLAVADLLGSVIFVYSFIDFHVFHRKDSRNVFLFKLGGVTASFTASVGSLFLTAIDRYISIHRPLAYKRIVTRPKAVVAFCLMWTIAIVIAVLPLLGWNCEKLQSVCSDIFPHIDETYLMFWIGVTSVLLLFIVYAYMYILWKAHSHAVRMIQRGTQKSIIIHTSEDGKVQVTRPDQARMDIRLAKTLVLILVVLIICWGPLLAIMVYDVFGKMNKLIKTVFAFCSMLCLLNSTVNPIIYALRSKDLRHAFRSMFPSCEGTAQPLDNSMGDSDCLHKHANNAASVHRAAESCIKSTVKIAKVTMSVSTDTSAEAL

Row | SMILES | EC50 (human CB1 receptors) | EC50 (human CB2 receptors)
1 | CC(C)(CCN1CCOCC1)NC(=O)c1ccc(C2CC2)c(OCC2CC2)n1 [Example 154, 5-Cyclopropyl-6-cyclopropylmethoxy-pyridine-2-carboxylic acid (1,1-dimethyl-3-morpholin-4-yl-propyl)-amide] | > 10 µM | 0.15 µM
2 | CC(C)C[C@@H](CO)NC(=O)c1ccc(N2CCCC2)c(OCC2CC2)n1 [Example 14, 6-Cyclopropylmethoxy-5-pyrrolidin-1-yl-pyridine-2-carboxylic acid ((S)-1-hydroxymethyl-3-methyl-butyl)-amide] | > 10 µM | 0.003 µM
3 | Cc1nc(C(C)(C)NC(=O)c2ccc(C3(O)CCC3)c(OCC3CC3)n2)no1 [Example 160, 6-Cyclopropylmethoxy-5-(1-hydroxy-cyclobutyl)-pyridine-2-carboxylic acid [1-methyl-1-(5-methyl-[1,2,4]oxadiazol-3-yl)-ethyl]-amide] | > 10 µM | 0.124 µM
4 | COC(=O)C(C)(C)NC(=O)c1ccc(-c2cc[nH]n2)c(OCC2CC2)n1 [Example 13, 2-{[6-Cyclopropylmethoxy-5-(1H-pyrazol-3-yl)-pyridine-2-carbonyl]-amino}-2-methyl-propionic acid methyl ester] | > 10 µM | 0.426 µM
5 | CNC(=O)[C@@H](NC(=O)c1ccc(C2CC2)c(OCC2CCCO2)n1)C(C)(C)C (stereo partly drawn) [Example 183, 5-Cyclopropyl-N-((S)-3,3-dimethyl-1-(methylamino)-1-oxobutan-2-yl)-6-((tetrahydrofuran-2-yl)methoxy)picolinamide] | 0.102 µM | 0.004 µM
6 | CC(C)C[C@H](C#N)NC(=O)c1ccc(C2CC2)c(OCC2CC2)n1 [Example 247, 5-Cyclopropyl-6-cyclopropylmethoxy-pyridine-2-carboxylic acid ((−)-1-cyano-3-methyl-butyl)-amide] | > 10 µM | 0.0056 µM
7 | O=C(NC1CCCCC1CO)c1cccc(C2CCCCC2)n1 (stereo not shown) [Example 122, 6-Cyclohexyl-pyridine-2-carboxylic acid (2-hydroxymethyl-cyclohexyl)-amide] | > 10 µM | 0.158 µM
8 | CNC(=O)C(C)(C)NC(=O)c1ccc(C2CC2)c(OCC2CC2)n1 [Example 43, 5-Cyclopropyl-6-cyclopropylmethoxy-pyridine-2-carboxylic acid (1-methyl-1-methylcarbamoyl-ethyl)-amide] | > 10 µM | 0.275 µM
9 | CNC(=O)[C@@H](NC(=O)c1ccc(C2CC2)c(OCC2CC2)n1)C(C)(C)C [Example 168, (S)-5-Cyclopropyl-6-(cyclopropylmethoxy)-N-(3,3-dimethyl-1-(methylamino)-1-oxobutan-2-yl)picolinamide] | 0.313 µM | 0.0006 µM
10 | NC(=O)[C@@H](NC(=O)c1ccc(C2CC2)c(OCC(F)(F)F)n1)c1ccccc1 [Example 301, 5-Cyclopropyl-6-(2,2,2-trifluoro-ethoxy)-pyridine-2-carboxylic acid ((S)-carbamoyl-phenyl-methyl)-amide] | > 10 µM | 0.13 µM
11 | CC[C@@H](NC(=O)c1ccc(C2CC2)c(OCC2CC2)n1)c1noc(C)n1 [Example 245, 5-Cyclopropyl-6-cyclopropylmethoxy-pyridine-2-carboxylic acid [(−)-1-(5-methyl-[1,2,4]oxadiazol-3-yl)-propyl]-amide] | > 10 µM | 0.0205 µM
12 | CS(=O)(=O)CC[C@H](NC(=O)c1ccc(N2CC(F)(F)C2)c(OCC2CC2)n1)C(N)=O [Example 345, 6-Cyclopropylmethoxy-5-(3,3-difluoro-azetidin-1-yl)-pyridine-2-carboxylic acid ((S)-1-carbamoyl-3-methanesulfonyl-propyl)-amide] | > 10 µM | 0.295 µM
13 | Cc1nc([C@](C)(NC(=O)c2ccc(C3CC3)c(OCC3CC3)n2)C2CC2)no1 [Example 324] | > 10 µM | 0.0041 µM
14 | CCN(C)C(=O)C(CC)(CC)NC(=O)c1ccc(C2CC2)c(OCC2CC2)n1 [Example 276, 5-Cyclopropyl-6-cyclopropylmethoxy-pyridine-2-carboxylic acid [1-ethyl-1-(ethyl-methyl-carbamoyl)-propyl]-amide] | > 10 µM | 0.0246 µM
15 | O=C(Nc1ccccn1)c1cccc(-c2cccc(Cl)c2)n1 [Example 20, 6-(3-Chloro-phenyl)-pyridine-2-carboxylic acid pyridin-2-ylamide] | > 10 µM | 0.262 µM
16 | CC(C)(C)NC(=O)c1ccc(N2CC(F)(F)C2)c(OCC2CC2)n1 [Example 359, 6-Cyclopropylmethoxy-5-(3,3-difluoro-azetidin-1-yl)-pyridine-2-carboxylic acid tert-butylamide] | > 10 µM | 0.0069 µM
17 | Cc1nc(C(C)(C)NC(=O)c2ccc(C)c(-c3cccc(Cl)c3)n2)no1 [Example 51, 6-(3-Chloro-phenyl)-5-methyl-pyridine-2-carboxylic acid [1-methyl-1-(5-methyl-[1,2,4]oxadiazol-3-yl)-ethyl]-amide] | > 10 µM | 0.127 µM
18 | CC(C)(CO)NC(=O)c1ccc(C2CCOC2)c(OCC2CC2)n1 (stereo not shown) [Example 141, 6-Cyclopropylmethoxy-5-(tetrahydro-furan-3-yl)-pyridine-2-carboxylic acid (2-hydroxy-1,1-dimethyl-ethyl)-amide] | > 10 µM | 0.459 µM
19 | O=C(NC1CCS(=O)(=O)C1)c1ccc(N2CC(F)(F)C2)c(OCC2CC2)n1 (stereo not shown) [Example 292, 6-Cyclopropylmethoxy-5-(3,3-difluoro-azetidin-1-yl)-pyridine-2-carboxylic acid (1,1-dioxo-tetrahydro-1λ^6-thiophen-3-yl)-amide] | > 10 µM | 0.874 µM
20 | CN1CC(NC(=O)c2ccc(N3CC(F)(F)C3)c(OCC3CC3)n2)CC1=O (stereo not shown) [Example 290, 6-Cyclopropylmethoxy-5-(3,3-difluoro-azetidin-1-yl)-pyridine-2-carboxylic acid (1-methyl-5-oxo-pyrrolidin-3-yl)-amide] | > 10 µM | 0.846 µM
21 | O=C(NC1CCCCC1)c1cccc(-c2cccc(Cl)c2)n1 [Example 18, 6-(3-Chloro-phenyl)-pyridine-2-carboxylic acid cyclohexylamide] | > 10 µM | 0.097 µM
22 | Cc1nc(C(C)(C)NC(=O)c2ccc(C3CCOC3)c(OCC3CC3)n2)no1 (stereo not shown) [Example 124, 6-Cyclopropylmethoxy-5-(tetrahydro-furan-3-yl)-pyridine-2-carboxylic acid [1-methyl-1-(5-methyl-[1,2,4]oxadiazol-3-yl)-ethyl]-amide] | > 10 µM | 0.0792 µM
23 | CCC(CC)(NC(=O)c1cccc(-c2cccc(Cl)c2)n1)C(=O)N(C)C [Example 23, 6-(3-Chloro-phenyl)-pyridine-2-carboxylic acid (1-dimethylcarbamoyl-1-ethyl-propyl)-amide] | > 10 µM | 0.0482 µM
24 | CNC(=O)[C@H](CC(C)C)NC(=O)c1ccc(C2CC2)c(OCC2CCCO2)n1 (stereo partly drawn) [Example 184, 5-Cyclopropyl-N-((S)-4-methyl-1-(methylamino)-1-oxopentan-2-yl)-6-((tetrahydrofuran-2-yl)methoxy)picolinamide] | > 10 µM | 0.0039 µM
25 | CCC(CC)(NC(=O)c1ccc(C2CC2)c(-c2cccc(Cl)c2)n1)C(=O)NC [Example 71, 6-(3-Chloro-phenyl)-5-cyclopropyl-pyridine-2-carboxylic acid (1-ethyl-1-methylcarbamoyl-propyl)-amide] | > 10 µM | 0.0612 µM
26 | CC(C)C[C@H](NC(=O)c1ccc(C2CC2)c(S(=O)(=O)CC(C)C)n1)C(N)=O [Example 351, 5-Cyclopropyl-6-(2-methyl-propane-1-sulfonyl)-pyridine-2-carboxylic acid ((S)-1-carbamoyl-3-methyl-butyl)-amide] | > 10 µM | 0.0399 µM
27 | CC(C)(NC(=O)c1ccc(C(F)(F)F)c(OCC2CC2)n1)c1nccs1 [Example 121, 6-Cyclopropylmethoxy-5-trifluoromethyl-pyridine-2-carboxylic acid (1-methyl-1-thiazol-2-yl-ethyl)-amide] | 1.35 µM | 0.111 µM
28 | Cc1nc(C(C)(C)NC(=O)c2ccc(C3CCCO3)c(OCC3CC3)n2)no1 (stereo not shown) [Example 123, 6-Cyclopropylmethoxy-5-(tetrahydro-furan-2-yl)-pyridine-2-carboxylic acid [1-methyl-1-(5-methyl-[1,2,4]oxadiazol-3-yl)-ethyl]-amide] | > 10 µM | 0.02 µM
29 | O=C(NC1CCCCC1O)c1cccc(C2CCCCC2)n1 (stereo not shown) [Example 84, 6-Cyclohexyl-pyridine-2-carboxylic acid (2-hydroxy-cyclohexyl)-amide] | > 10 µM | 0.292 µM

Source: patent US9290451B2 (Hoffmann-La Roche Inc., priority 2011, dated 2016)
